How the values were obtained:
Experiment in all cases: relative viability (nuclei count vs DMSO), 5 days (fraction); higher = more cells survive
Axitinib + Navitoclax = compound: CNC(=O)c1ccccc1Sc1ccc2c(/C=C/c3ccccn3)n[nH]c2c1 [Axitinib] + CC1(C)CCC(c2ccc(Cl)cc2)=C(CN2CCN(c3ccc(C(=O)NS(=O)(=O)c4ccc(N[C@H](CCN5CCOCC5)CSc5ccccc5)c(S(=O)(=O)C(F)(F)F)c4)cc3)CC2)C1 [Navitoclax] (partner 0.5 µM)
Summary of the method: (§1)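 Lung cancer cell lines, seeded in 1536-well plates, were treated the following day by pin tool with a single drug or with five library-drug doses (not always all listed) in √10 steps on top of a fixed anchor-drug dose. Cells were fixed and nuclei stained in one step after 5 days, and nuclei were counted. Relative viability is the nuclei count for treated wells divided by that for vehicle wells, reported as medians of duplicate plates.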

[1] = compound: Nc1nc(Nc2ccc3c(c2)CC[C@@H](N2CCCC2)CC3)nn1-c1cc2c(nn1)-c1ccccc1CCC2 [Bemcentinib] + CC(=O)c1c(C)c2cnc(Nc3ccc(N4CCNCC4)cn3)nc2n(C2CCCC2)c1=O [Palbociclib] (partner 0.5 µM)
Summary of the method: as §1

Bemcentinib + Luminespib = compound: Nc1nc(Nc2ccc3c(c2)CC[C@@H](N2CCCC2)CC3)nn1-c1cc2c(nn1)-c1ccccc1CCC2 [Bemcentinib] + CCNC(=O)c1noc(-c2cc(C(C)C)c(O)cc2O)c1-c1ccc(CN2CCOCC2)cc1 [Luminespib] (partner 0.01 µM)
Summary of the method: as §1

Bemcentinib + Lapatinib = compound: Nc1nc(Nc2ccc3c(c2)CC[C@@H](N2CCCC2)CC3)nn1-c1cc2c(nn1)-c1ccccc1CCC2 [Bemcentinib] + CS(=O)(=O)CCNCc1ccc(-c2ccc3ncnc(Nc4ccc(OCc5cccc(F)c5)c(Cl)c4)c3c2)o1 [Lapatinib] (partner 2 µM)
Summary of the method: as §1

Cell Line | relative viability (Axitinib + Navitoclax; first compound 0.005 µM) | relative viability (Axitinib + Navitoclax; first compound 0.01581 µM) | relative viability (Axitinib + Navitoclax; first compound 0.05 µM) | relative viability (Axitinib + Navitoclax; first compound 0.1581 µM) | relative viability (Axitinib + Navitoclax; first compound 0.5 µM) | relative viability ([1]; first compound 0.04 µM) | relative viability ([1]; first compound 0.1265 µM) | relative viability ([1]; first compound 0.4 µM) | relative viability ([1]; first compound 1.265 µM) | relative viability ([1]; first compound 4 µM) | relative viability (Bemcentinib + Luminespib; first compound 0.04 µM) | relative viability (Bemcentinib + Luminespib; first compound 0.1265 µM) | relative viability (Bemcentinib + Luminespib; first compound 0.4 µM) | relative viability (Bemcentinib + Luminespib; first compound 1.265 µM) | relative viability (Bemcentinib + Luminespib; first compound 4 µM) | relative viability (Bemcentinib + Lapatinib; first compound 0.04 µM) | relative viability (Bemcentinib + Lapatinib; first compound 0.1265 µM) | relative viability (Bemcentinib + Lapatinib; first compound 0.4 µM) | relative viability (Bemcentinib + Lapatinib; first compound 1.265 µM) | relative viability (Bemcentinib + Lapatinib; first compound 4 µM)
NCI-H2087 | 1.24 | 1.1 | 1.04 | 0.899 | 1.07 | 0.235 | 0.24 | 0.228 | 0.273 | 0.198 | 0.142 | 0.15 | 0.187 | 0.219 | 0.185 | 0.992 | 0.951 | 1.08 | 1.01 | 1.01
NCI-H2126 | 0.81 | 0.877 | 0.824 | 0.841 | 0.765 | 0.342 | 0.334 | 0.364 | 0.385 | 0.357 | 0.893 | 0.973 | 0.81 | 0.975 | 0.939 | 0.791 | 0.768 | 0.8 | 0.814 | 0.842
NCI-H2170 | 0.661 | 0.715 | 0.621 | 0.617 | 0.707 | 0.394 | 0.415 | 0.395 | 0.422 | 0.407 | 0.568 | 0.923 | 0.649 | 0.809 | 0.869 | 0.274 | 0.267 | 0.295 | 0.251 | 0.273
NCI-H2228 | 0.698 | 0.893 | 0.847 | 0.99 | 1.19 | 0.268 | 0.827 | 0.844 | 0.836 | 0.997 | 0.128 | 0.152 | 0.159 | 0.111 | 0.134 |  | 1.39 | 1.18 | 1.08 | 1.18
NCI-H2347 | 0.793 | 0.857 | 0.902 | 0.818 | 0.934 | 0.438 | 0.467 | 0.385 | 0.443 | 0.443 | 0.631 | 0.438 | 0.866 | 0.5 | 0.417 | 1.01 | 0.928 | 0.977 | 0.955 | 0.9
NCI-H2405 | 0.913 | 0.933 | 0.881 | 0.857 | 1.11 | 0.555 | 0.549 | 0.528 | 0.59 | 0.583 | 0.659 | 0.716 | 0.609 | 0.754 | 0.656 | 0.86 | 1.16 | 1.05 | 1.1 | 1.03
NCI-H3122 | 0.992 | 0.956 | 1.05 | 1.02 | 1.04 | 0.148 | 0.192 | 0.155 | 0.192 | 0.201 |  | 0.0968 | 0.102 | 0.0892 | 0.0707 | 0.818 | 1.03 | 1.03 | 1.02 | 1.03
PC-3 [JPC-3] | 0.827 |  | 0.787 | 0.82 | 0.928 | 0.548 | 0.577 | 0.522 | 0.592 | 0.551 | 0.722 | 0.695 | 0.712 | 0.69 | 0.674 | 0.455 | 0.495 | 0.421 | 0.425 | 0.471
PC-14 | 1.09 | 1.01 | 1.05 | 0.967 | 1.05 | 0.588 | 0.51 | 0.737 | 0.596 | 0.485 | 0.132 | 0.137 | 0.186 | 0.159 | 0.132 | 0.336 | 0.372 | 0.339 | 0.3 | 0.284
RERF-LC-KJ | 1 | 0.942 | 0.973 | 1.02 | 1.28 | 0.964 | 1.07 | 1.05 | 1.24 | 1.18 | 1.45 | 1.23 | 1.24 | 1.17 | 1.1 | 0.848 | 1.02 | 1.15 | 0.919 | 0.885
SK-LU-1 | 0.955 | 1.2 | 0.932 | 0.812 | 1.13 | 0.338 | 0.446 | 0.393 | 0.487 | 0.37 | 0.204 | 0.202 | 0.196 | 0.192 | 0.198 | 0.806 | 0.888 | 0.865 | 0.964 | 0.904
SK-MES-1 | 1.32 | 1.2 | 1.32 | 1.25 | 1.51 | 0.314 | 0.33 | 0.325 | 0.316 | 0.317 | 0.456 | 0.742 | 0.786 | 0.761 | 1.07 | 0.437 | 0.447 | 0.431 | 0.482 | 0.511
SW 1573 | 0.914 | 1.03 | 1.05 | 0.852 | 0.904 | 0.395 | 0.407 | 0.416 | 0.391 | 0.364 | 0.203 | 0.185 | 0.212 | 0.152 | 0.215 | 0.976 | 1.03 | 1.18 | 0.961 | 1.09
UMC-11 | 0.322 | 0.305 | 0.282 | 0.347 | 0.294 | 0.354 | 0.343 | 0.323 | 0.349 | 0.324 | 0.964 | 1.06 | 1.1 | 0.967 | 1.04 | 0.88 | 1.16 | 1.06 | 0.868 | 0.975

Source: the supplement of paper PMC10307832
